Like-named read-outs stand apart in the source and are kept apart here.
Key:
WT MtIPMS = WT MtIPMS (Mycobacterium tuberculosis, UniProt P9WQB3); experiment: Steady-state kinetic analysis; type: biochemical
wild-type MtIPMS = wild-type MtIPMS (Mycobacterium tuberculosis, UniProt P9WQB3); type: biochemical
WT IPMS = WT IPMS (Mycobacterium tuberculosis, UniProt P9WQB3); type: binding; settings: ITC
Chain of WT IPMS (P9WQB3 whole entry): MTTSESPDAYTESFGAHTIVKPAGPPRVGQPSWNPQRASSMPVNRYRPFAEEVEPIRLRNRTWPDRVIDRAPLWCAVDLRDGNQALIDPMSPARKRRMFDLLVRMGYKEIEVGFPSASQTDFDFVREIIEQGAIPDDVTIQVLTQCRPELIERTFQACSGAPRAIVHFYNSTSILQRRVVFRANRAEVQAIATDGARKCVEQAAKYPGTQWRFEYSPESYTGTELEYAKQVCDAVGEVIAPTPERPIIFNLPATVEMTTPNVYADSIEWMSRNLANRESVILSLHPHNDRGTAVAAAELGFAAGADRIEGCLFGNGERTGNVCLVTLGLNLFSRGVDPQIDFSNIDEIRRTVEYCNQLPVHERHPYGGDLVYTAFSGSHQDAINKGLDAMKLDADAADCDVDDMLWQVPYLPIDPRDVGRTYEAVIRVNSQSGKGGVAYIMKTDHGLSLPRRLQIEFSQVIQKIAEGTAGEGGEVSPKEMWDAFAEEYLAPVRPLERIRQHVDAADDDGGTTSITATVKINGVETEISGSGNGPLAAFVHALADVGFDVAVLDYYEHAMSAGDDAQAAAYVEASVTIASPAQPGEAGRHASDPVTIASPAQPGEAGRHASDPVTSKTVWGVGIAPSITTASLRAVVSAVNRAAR

Chain of WT MtIPMS (P9WQB3 whole entry): as above
Chain of wild-type MtIPMS (P9WQB3 whole entry): as above

## CC(C)C(=O)C(=O)O [α-KIV, α-ketoisovalerate]
WT MtIPMS; read-out: K1 (Km), varied substrate α-KIV
  Km: 7.1 ± 0.5 µM
WT MtIPMS; varied substrate α-KIV
  kcat1 (kcat): 2.53 ± 0.05 s⁻¹

## CC(C)C[C@H](N)C(=O)O [L-leucine]
wild-type MtIPMS
  activity retained at saturating L-leucine: approximately 10%
  β (fractional activity at saturating inhibitor): 0.1
WT IPMS
  N (stoichiometry for binding): 0.86 ± 0.02
  ΔH: 0.774 ± 0.02 kcal/mol
  ΔS: 27.8 cal/mol/K

## CC(=O)SCCNC(=O)CCNC(=O)[C@H](O)C(C)(C)COP(=O)(O)OP(=O)(O)OC[C@H]1O[C@@H](n2cnc3c(N)ncnc32)[C@H](O)[C@@H]1OP(=O)(O)O [Acetyl-CoA, acetyl-coenzyme A]
WT MtIPMS; read-out: K1 (Km), varied substrate Acetyl-CoA
  Km: 24 ± 2 µM
WT MtIPMS; varied substrate Acetyl-CoA
  kcat1 (kcat): 2.72 ± 0.05 s⁻¹

— publication PMC2724842 (Biochemistry, 2009)
